Patent publication US20170000849A1, “CD300A RECEPTORS AS VIRUS ENTRY COFACTORS” (INSTITUT NATIONAL DE LA SANTE ET DE LA RECHERCHE MEDICALE …, priority 2013, published 2017)

Columns and labels:
[1] = system: binding of DC-SIGN-Fc to DV2 JAM particles; design: species or system human; settings: DV2 JAM coated particles; ANX5 0.31-20 μg/ml, Duramycin 0.625-5 μM, EDTA 1.25 to 25 mM
Procedure: All ELISA were performed on Maxisorp 96 well plates (Nunc). PBS diluted DV particles (1.106 FIU) were coated overnight at 4° C. […] Wells were saturated with TBS 1×, 10 mM CaCl2, 2% BSA for 2 h at 37° C. All dilutions were in TBS 1×, 10 mM CaCl2, washes in TBS 1×, 10 mM CaCl2, 0.5% Tween 20, and incubations, 1 h at 4° C. Annexin V or Duramycin were added previously to Fc chimera while EDTA was mixed with Fcs′. All Fcs' were 2 μg/ml. Bound Fcs' were detected with a pAb rabbit anti-human IgG-HRP and OPD substrate.

[2] = target: binding of CD300a-Fc to DV2 JAM particles (Homo sapiens, UniProt Q9UGN4); assay: ELISA: binding of CD300a-Fc to DV2 JAM coated particles in the presence of inhibitor; settings: for inhibition of the binding of CD300a to DV: ANX5 0.31-20 μg/ml or Duramycin 0.625-5 μM added before CD300a-Fc (2 μg/ml); for effect on CD300a-Fc binding to DV (in words): rat mAb 0.625 to 20 μg/ml, EDTA 1.25 to 25 mM mixed with Fc, ANX5, Duramycin added before Fc
Procedure: Graph representing the amount of CD300a-Fc bound by DV2 JAM coated particles in the presence of anti-CD300Ab. Serial dilutions of a rat mAb to CD300a or its IgG2a isotype were mixed with CD300a-Fc before incubation with DV2 JAM coated particles. Residual bound Fc was detected with a HRP conjugated rabbit pAb to human IgG (1/1000) and OPD substrat. Data are represented as mean±SD of three independent experiments performed in duplicates.
(§1) Bar chart representing the amount of TIM3-Fc, CD300a-Fc or DV-SIGN-Fc bound to DV2 JAM particles in the presence of different concentration of Annexin V, a PtdSer specific ligand. DV2 JAM particles were coated in 96 well plates and incubated for one hour at +4° C. with various concentrations of the PtdSer specific ligand Annexin V before the addition of human IgG1-Fc, TIM3-Fc, CD300a-Fc or DV-SIGN-Fc (2 μg/ml). Bound Fcs were detected with a HRP conjugated rabbit pAb to human IgG (1/1000) and OPD substrate. Data are represented as mean±SD of three independent experiments performed in duplicates.
Bar chart representing the amount of CD300a-Fc or DV-SIGN-Fc bound to DV2 JAM particles in the presence of different concentration of Duramycin. DV2 JAM particles were coated in 96 well plates and incubated for one hour at +4° C. with various concentrations of the PtdEth specific ligand Duramycin before the addition of human IgG1-Fc, TIM3-Fc, CD300a-Fc or DV-SIGN-Fc (2 μg/ml). Bound Fcs were detected with a HRP conjugated rabbit pAb to human IgG (1/1000) and OPD substrate. Data are represented as mean±SD of three independent experiments performed in duplicates.
Bar chart representing the amount of CD300a-Fc bound by DV2 JAM coated particles in the presence of EDTA. Two fold serial dilutions of EDTA (1-25 mM) were mixed with CD300a-Fc before incubation with DV2 JAM coated particles. Bound Fcs were detected with a HRP conjugated rabbit pAb to human IgG (1/1000) and OPD substrate. Data shown are mean±SD of duplicates wells and representative of three independent experiments.
All ELISA were performed on Maxisorp 96 well plates (Nunc). PBS diluted DV particles (1.106 FIU) were coated overnight at 4° C. Coated 3-sn-phosphatidyl-Choline, -Ethanolamine or -Serine (10 μg/well, Sigma, Lyon, France) were diluted in ethanol and the wells air dried. Wells were saturated with TBS 1×, 10 mM CaCl2, 2% BSA for 2 h at 37° C. All dilutions were in TBS 1×, 10 mM CaCl2, washes in TBS 1×, 10 mM CaCl2, 0.5% Tween 20, and incubations, 1 h at 4° C. Annexin V or Duramycin were added previously to Fc chimera while EDTA was mixed with Fcs′. All Fcs' were 2 μg/ml. Bound Fcs' were detected with a pAb rabbit anti-human IgG-HRP and OPD substrate.

[3] = system: binding of TIM3-Fc to DV2 JAM particles; assay: ELISA: binding of TIM3-Fc to DV2 JAM coated particles in the presence of Annexin V; design: species or system human; settings: ANX5 0.31-20 μg/ml, TIM3-Fc 2 μg/ml
Procedure: as §1
To identify whether CD300a recognized these phospholipids at the surface of virions, DV2 JAM coated particles were challenged with serially diluted concentrations of the PtdSer specific ligand AnnexinV (ANX5) (0.31-20 μg/ml, FIG. 14) or the PtdEth specific ligand Duramycin (0.625-5 μM, FIG. 15) before the addition of Fc coupled molecules.

binding of CD300a-Fc to DV2 JAM particles, sequence (Q9UGN4 with tags, fused parts or gaps limits assumed): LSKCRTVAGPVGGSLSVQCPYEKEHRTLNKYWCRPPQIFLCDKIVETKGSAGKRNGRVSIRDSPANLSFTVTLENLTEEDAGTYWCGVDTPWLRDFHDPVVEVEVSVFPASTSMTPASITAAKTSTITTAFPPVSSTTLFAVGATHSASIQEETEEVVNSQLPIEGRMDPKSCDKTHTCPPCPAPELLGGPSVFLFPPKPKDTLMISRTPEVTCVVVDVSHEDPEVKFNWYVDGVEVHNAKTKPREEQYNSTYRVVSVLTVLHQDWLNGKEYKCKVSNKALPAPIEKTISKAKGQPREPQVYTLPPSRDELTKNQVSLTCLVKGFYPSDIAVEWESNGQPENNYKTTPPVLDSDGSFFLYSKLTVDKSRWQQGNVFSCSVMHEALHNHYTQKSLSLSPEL

Substance	effect on DV/DC-SIGN-Fc binding (in words) [1]	inhibition of the binding of CD300a to DV [2]	effect on CD300a-Fc binding to DV (in words) [2]	binding of TIM3-Fc to DV blocked [3]
Duramycin [reference compound]	left unchanged	up to 98%	inhibited in a concentration dependent manner	–
Annexin V [ANX5]	left unchanged	up to 35%	inhibited in a concentration dependent manner	up to 60%
